Data: US5171882A, “Leukotriene antagonists” (Eli Lilly and Company, priority 1990, dated 1992)
Where two headings read alike, the source gives them in different places.

What was measured:
[1] = biological target: T1, specific receptor on the membrane of human neutrophils (leukotriene B4) (Homo sapiens, UniProt Q15722); assay: Inhibition of Binding of ^3 H-LTB4 to Peripheral Human Neutrophils; settings: for inhibition at 10 µM / inhibition at 1 µM / inhibition at 0.1 µM: read-out: LTB4 Binding Inhibition; for inhibition at 0.1 µM: drug concentration 10^-7 M
T1 construct: Freshly-prepared buffy coat layers from two individuals were obtained from a local blood donor center; endogenous in cells; host or cells: intact human peripheral blood neutrophils from buffy coats of two donors
Method: Cells used in the assay were isolated by standard techniques of centrifugation on Ficoll-Hypaque, dextran 70 sedimentation and hypotonic lysis. The following procedure was used. Freshly-prepared buffy coat layers from two individuals were obtained from a local blood donor center. The cells were mixed and diluted to 484 ml with phosphate buffered saline containing heparin (10 units/ml) and heat-inactivated calf serum (5%). This was divided into 20 ml aliquots and the aliquots layered on top of Ficoll-Paque (12 ml). The material was then centrifuged at 500 g for 40 minutes at room temperature. The resulting upper layer of platelets and mononuclear cells was discarded. The lower layer containing erythrocytes and neutrophils was retained. Buffer was added (1 ml per 4 ml of lower layer) and the suspension mixed. For each milliliter of this mixture, 0.33 ml of 6% Macrodex was added. After stirring, the cells were allowed to sediment for 1 hour at 37° C. The resulting erythrocyte pellet was discarded and the neutrophil enriched supernatant fluid centrifuged at 500 g for 10 minutes at 4° C. Erythrocytes still present in this cell pellet were lysed by incubating the cells with 5-8 ml ice-cold distilled water for 30-45 seconds. Subsequently, the volume was made up to 50 ml by addition of ice-cold buffer and the cells resuspended. The suspension was then centrifuged at 300 g for 10 minutes at 4° C. The cells were finally resuspended at a cell density of 2×10^7 cells/ml in the assay buffer This buffer consisted of Hanks' balanced salt solution and 0.1% ovalbumin (pH 7.3).
The amount of bound ^3 H-LTB4 was then measured and compared with the amount bound in the absence of test compound. The assay was carried out in microcentrifuge tubes by adding first 10 μl test compound dissolved in DMSO, followed by adding 20 μl ^3 H-LTB4 diluted in assay buffer, and finally adding 500 μl of the cell suspension. At the end of the 10 minutes incubation, 300 μl of a mixture of dibutyl and dinonyl phthalate (7:2) were added and the tubes centrifuged for 2 minutes in a microcentrifuge. The radioactivity bound to the cell pellet was measured by scintillation spectroscopy. Appropriate corrections for nonspecific bonding of ^3 H-LTB4 were made.

[2] = system: LTB4 induced cell aggregation (neutrophils); assay: LTB4 Induced Aggregation Assay (neutrophils); type: cell-based, guinea pig; settings: Cavia porcellus, Neutrophil; for inhibition at 1 µM: drug concentration 10^-6 M; for inhibition at 0.1 µM: drug concentration 10^-7 M; for inhibition at 10 µM: drug concentration 10^-5 M
Method: Neutrophils were elicited by intraperitoneally injecting 20 ml of Dulbecco's calcium and magnesium deficient phosphate buffered saline (PBS) containing 2% oyster glycogen into each of two male Hartley guinea pigs. Eighteen hours later, cells accumulating in the peritoneal cavity were harvested by washing the peritoneum with approximately 100 ml of PBS containing 10 units/ml of heparin. The cells were centrifuged at 200 g for 8 min. and the supernatant fluid discarded. Erythrocytes present in the pellet were lyzed by vigorous agitation of the cells in 9 ml of ice-cold distilled water for approximately 30 seconds. Physiological osmolarity was restored by adding 1.5 ml of 0.6 M KCl. Twelve milliliters of PBS were added and the resuspended cells centrifuged at 200 g for 8 min. at 4°. The pellet was resuspended in 5 ml PBS. The cell concentration was determined and additional buffer added to make the concentration […]; cells per ml.
The aggregation assay was carried out by measuring the amount of LTB4 induced cell aggregation with a Payton single channel aggregometer, model 300B. The apparatus was calibrated by placing a cuvette containing the cell suspension in it and adjusting the zero knob so that the recorder pen rested at 1 mV. A cuvette containing 20% less cells was then inserted into the aggregometer and the output knob adjusted so that the recorder pen rested at 9 mV. With these settings an 8 mV change causes the recorder pen to move 200 mm. When conducting an assay, 0.5 ml of cell suspension (5×10^6 cells) was added to each cuvette. Five microliters of a solution of test compound were then added. Most compounds were initially dissolved in DMSO at 1×10^-2 M and then diluted appropriately with PBS so that the test compound concentration was 1×10^-5 to 1×10^-7 M and the test DMSO concentration was 0.1% or less. A few of the more water insoluble compounds were first dissolved in DMSO at 1 to 6×10^-3 M and then diluted appropriately with PBS. The test concentration of DMSO was never higher than 1%. After a 2 minute equilibration period of cells and test compound, 5 μl of a solution containing CaCl2 (100 mM) and MgCl2 (50 mM) were added. One minute later, 5 μ l of PBS containing LTB4 (3×10^-7 M) were added. The change occurring in the amount of light transmitted during the subsequent minute was measured. […] During a typical experiment, several measurements of the amount of aggregation induced by LTB4 were made and an average value determined. The effect of a test compound on this aggregation was determined by the following formula: [formula]

[3] = biological target: T2, LTD4 receptors (Cavia porcellus, UniProt Q2NNR5); assay: Antagonism of LTD4 (guinea pig ileum and trachea, pA2); settings: *Estimated; negative log of KB; antagonist 30 minute incubation
T2 construct: A section of terminal ileum was removed, the lumen cleaned, and the tissue divided into 2.5 cm segments; from tissue; host or cells: ileum and trachea of guinea pig (ileum: male Hartley)
T2 sequence (Q2NNR5 1-340): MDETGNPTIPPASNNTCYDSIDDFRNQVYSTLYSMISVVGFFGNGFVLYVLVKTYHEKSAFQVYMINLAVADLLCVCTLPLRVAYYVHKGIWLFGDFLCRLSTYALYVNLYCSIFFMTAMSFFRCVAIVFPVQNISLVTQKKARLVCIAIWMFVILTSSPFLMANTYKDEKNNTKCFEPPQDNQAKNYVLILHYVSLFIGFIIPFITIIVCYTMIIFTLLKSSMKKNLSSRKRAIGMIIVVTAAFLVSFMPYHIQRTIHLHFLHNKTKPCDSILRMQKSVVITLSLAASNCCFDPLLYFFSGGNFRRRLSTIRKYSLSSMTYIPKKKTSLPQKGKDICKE
Method: Male, Hartley guinea pigs weighing 200-450 grams were killed by decapitation. A section of terminal ileum was removed, the lumen cleaned, and the tissue divided into 2.5 cm segments. The ilea were mounted in 10 ml tissue baths containing Krebs-bicarbonate solution of the following composition in mmoles/liter: KCl, 4.6; CaCl2 ·2H2 O, 1.2; KH2 PO4, 1.2; MgSO4 ·7H2O, 1.2; NaCl, 118.2; NaHCO3, 24.8; and dextrose, 10.0. The bath fluid was maintained at 37° C. and aerated with 95 percent oxygen and 5 percent CO2 In addition, the buffer contained 1×10^-6 M atropine to reduce ileal spontaneous activity. Isometric measurements were made with a Grass FT03C. force-displacement transducer and recorded on a Grass polygraph as change in grams of force. A passive force of 0.5 g was applied to the tissues. After an appropriate equilibration period, single submaximal control responses to pure LTD4 were obtained. Following a five minute exposure of the ileum to an experimental drug, the control concentration of LTD4 was added to the tissue bath. The response of the ileum to LTD4 in the presence of the drug was compared to the response in the absence of the drug.
A more detailed analysis of LTD4 antagonism was then made. In these experiments, cumulative concentration-response curves were obtained to LTD4 in guinea pig ileum and trachea. This was followed by a 30 minute incubation with various concentrations of the experimental drug. The concentration response curve to LTD4 was then repeated in the presence of the antagonist. Only one concentration of antagonist was used on a single tissue. KB values were calculated by the method of Furchgott [Ann. N.Y. Acad. Sci., 139, 553 (1967)] using the following equation. [formula]
Dose ratio refers to the concentration of agonist required to elicit 50 percent of the maximal response ED50) in the presence of the antagonist divided by the ED50 in the absence of the antagonist.

[4] = drug concentration 10^-5 M, 0.1-0.2 nM ^3 H-LTB4, 10 minutes at 4° C
[5] = drug concentration 10^-6 M, 0.1-0.2 nM ^3 H-LTB4, 10 minutes at 4° C
[6] = 0.1-0.2 nM ^3 H-LTB4, 10 minutes at 4° C

T1 sequence (Q15722 whole entry): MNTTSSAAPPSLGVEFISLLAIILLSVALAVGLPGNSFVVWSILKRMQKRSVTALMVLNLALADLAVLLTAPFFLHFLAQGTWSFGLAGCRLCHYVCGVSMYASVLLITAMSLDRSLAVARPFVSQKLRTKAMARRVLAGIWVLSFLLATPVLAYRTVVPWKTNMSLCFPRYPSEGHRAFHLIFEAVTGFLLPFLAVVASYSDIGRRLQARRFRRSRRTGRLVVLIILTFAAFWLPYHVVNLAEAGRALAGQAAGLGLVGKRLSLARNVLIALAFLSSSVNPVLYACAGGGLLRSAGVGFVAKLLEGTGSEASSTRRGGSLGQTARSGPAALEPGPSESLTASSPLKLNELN

Row | SMILES | inhibition at 10 µM [1, 4] [%] | inhibition at 1 µM [1, 5] [%] | Kb [3] [nM] | LTB4 Binding Inhibition [1, 5] [percent inhibition] | inhibition at 1 µM [2] [%] | inhibition at 0.1 µM [2] [%] | inhibition at 0.1 µM [1, 6] [%] | inhibition at 10 µM [1] [%] | inhibition at 10 µM [2] [%]
1 | CCCCCCCCCCOc1ccc(C(=O)c2ccccc2C(=O)O)cc1CC(=O)O [Example 20, 5-(2-Carboxybenzoyl)-2-(decyloxy)benzeneacetic acid] | 71 |  | 1000 | 35 | 78 | 32 |  |  | 
2 | CCCCCCCCCCOc1ccc(C(=O)c2ccccc2CC(=O)O)cc1CCC(=O)O [Example 33, 5-[2-(Carboxymethyl)benzoyl]-2-(decyloxy)benzenepropanoic acid] |  | 79 | 1150 |  | 94 | 45 | 17 | 100 | 
3 | CCCCCCCCCCOc1ccc(C(O)c2cccc(C(=O)O)c2)cc1CC(=O)O (stereo not drawn) [Example 45, 5-[(3--Carboxyphenyl)hydroxymethyl]-2-(decyloxy)benzeneacetic acid] | 78 | 19 | 2000 |  | 11 |  |  |  | 77
4 | CCCCCCOc1ccc(C(O)c2cccc(C(=O)O)c2)cc1CC(=O)O (stereo not drawn) [Example 48, 5-[(3--Carboxyphenyl)hydroxymethyl]-2-(hexyloxy)benzeneacetic acid] | 10 | -10 | 7940 |  |  |  |  |  | 
5 | CCCCCCCCCCOc1ccc(C(=NO)c2cccc(C(=O)O)c2)cc1CCC(=O)O [Example 52, 5-[(3-Carboxyphenyl)(hydroxyimino)methyl]-2-(decyloxy)benzenepropanoic acid] |  | 61 | 661 |  | 89 | 38 | 17 | 92 | 94

The next lines start with results.

Row | inhibition at 10 µM [1, 4] [%] | inhibition at 1 µM [1, 5] [%] | Kb [3] [nM] | LTB4 Binding Inhibition [1, 5] [percent inhibition] | SMILES | inhibition at 1 µM [2] [%] | inhibition at 0.1 µM [2] [%] | inhibition at 0.1 µM [1, 6] [%] | inhibition at 10 µM [1] [%] | inhibition at 10 µM [2] [%]
6 | 76 | 26 | 501 |  | CCCCCCCCCCOc1ccc(C(=O)c2cccc(C(=O)O)c2)cc1Cc1nnn[nH]1 [Example 3, 3-[4-(Decyloxy)-3-(1-tetrazol-5-ylmethyl]benzoyl]benzoic acid] | 84 | 2 |  |  | 
7 | 95 | 62 | 1950 |  | CCCCCCCCCCOc1ccc(C(=O)c2cccc(C(=O)O)c2)cc1CCC(=O)O [Example 22, 5-(3-Carboxybenzoyl)-2-(decyloxy)benzenepropanoic acid] |  | 83 | 17 |  | 
8 | 96 | 55 | 324 |  | CCCCCCCCCCOc1ccc(C(=O)c2cccc(C(=O)O)c2)cc1CCc1nnn[nH]1 [Example 28, 3-{4-(Decyloxy)-3-[2-(1H-tetrazol-5-yl)ethyl]benzoyl}benzoic acid] |  |  |  |  | 
9 | 98 | 71 | 955 |  | CCCCCCCCCCOc1ccc(C(=O)c2cccc(-c3nnn[nH]3)c2)cc1CCC(=O)O [Example 29, 2-(Decyloxy)-5-[3-(1H-tetrazol-5-yl)benzoyl]benzenepropanoic acid] | 72 | 14 | 11 |  | 
10 | 88 | 41 | 479 |  | CCCCCCCCCCOc1ccc(Oc2cccc(C(=O)O)c2)cc1CCC(=O)O [Example 56, 5-(3-Carboxyphenoxy)-2-(decyloxy)benzenepropanoic acid] |  |  |  |  | 
